These results are taken from patent US4925943A, “2-(2-aminobenzyl or 2-nitrobenzyl)-1,2,3,4-tetrahydroisoquinoline derivatives” (priority 1986, dated 1990).

Where two headings read alike, the source gives them in different places. Some results are limits rather than exact numbers.

By Ki is commonly meant the equilibrium dissociation constant of an inhibitor or competing ligand from its target. The Kb is the equilibrium dissociation constant of an antagonist, usually derived from a functional assay. A higher Kb goes with a less potent antagonist.

For test [1], the target named is α1 adrenergic receptors of rat cerebral cortex. Description: [3H] prazosine binding, rat cerebral cortex (α1). Details: species or system rat (male Wistar). Particulars: for Ki: read-out: Prazosine [^3 H] Ki nM, rat cerebral cortex, 0.2 nM [3H] prazosine, 25° C., 30 minutes, at least three experiments ± standard deviation. Here is the method:
(§1) The preparation of the cerebral cortex homogenates is made starting from male Wistar rats, age 12 weeks. After decapitation, the brains are rapidly removed and dissected. The tissues are homogenized with the aid of an ultra-turrax in 50 mM of a pH 7.5 Tris-HCl buffer and centrifuged at 40,000 g for ten minutes. The centrifugate is dissolved in buffer and recentrifuged in the same way. All of the operations are carried out at a temperature less than 4° C. The final centrifugate is homogenized in the incubation buffer maintained in melting ice (tris-HCl 50 mM pH 7.5) so as to obtain a final dilution of the cortical tissue of 1/100 (by volume), which corresponds to about 0.5 mg of protein per ml.
(§2) These filters are rinsed 4 times with 5 ml of incubation buffer preserved in ice. The radioactivity retained on the filters is counted by liquid scintillation. The non-specific fixation of the radioactive ligand is evaluated in the presence of 10 μM phentolamine.
(§3) Starting from the inhibition curves for the specific fixation of a ligand to its receptor by increasing quantities of a non-radioactive product, the inhibition constant (Ki) of this product is determined.

Test [2] deals with T1, α2 adrenergic receptors of rat cerebral cortex (Rattus norvegicus, UniProt P22909).
T1 construct: The preparation of the cerebral cortex homogenates is made starting from male Wistar rats; from tissue; host or cells: cerebral cortex homogenate of male Wistar rats
T1 sequence (P22909 1-465): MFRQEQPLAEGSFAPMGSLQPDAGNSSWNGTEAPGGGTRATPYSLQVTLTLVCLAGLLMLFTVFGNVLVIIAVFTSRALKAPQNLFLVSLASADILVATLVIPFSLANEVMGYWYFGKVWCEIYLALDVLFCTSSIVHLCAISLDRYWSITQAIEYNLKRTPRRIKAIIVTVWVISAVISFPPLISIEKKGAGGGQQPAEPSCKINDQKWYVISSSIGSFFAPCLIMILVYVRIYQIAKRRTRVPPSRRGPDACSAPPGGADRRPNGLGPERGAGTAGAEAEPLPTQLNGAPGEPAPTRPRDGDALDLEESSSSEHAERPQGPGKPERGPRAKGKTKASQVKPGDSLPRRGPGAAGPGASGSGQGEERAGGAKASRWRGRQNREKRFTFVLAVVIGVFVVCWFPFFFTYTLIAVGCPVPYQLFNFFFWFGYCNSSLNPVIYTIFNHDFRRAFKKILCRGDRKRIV
Description: [3H] yohimbine binding, rat cerebral cortex (α2). Further details: species or system rat (male Wistar). The procedure:
as §1, §2, §3

Test [3] addresses T2, α2 adrenergic receptors of isolated rat deferent canal (Rattus norvegicus, UniProt P22909).
T2 sequence (P22909 1-465): T1 sequence (P22909 1-465)
Description: antagonism with clonidine on electrically stimulated rat deferent canal.
Description: Each organ is connected to an isometric sensor of tradename Statham, made by Gould Inc., Medical Product Division, under a base tension of 0.5 g. Contractions are recorded by a polygraph of tradename Beckman, made by Beckman. To characterize the α2 blocking effect, the deferent canal is electrically stimulated by rectangular impulses of 2 msec duration, 30 volts, with a frequency of 0.2 Hz delivered by a stimulator of tradename Bioscience (Stimulator 100), made by Palmer. After a rest period of 20-30 minutes, increasing concentrations of clonidine are added to the survival medium over 2 minutes. This permits establishing the relation between the effect and concentration of clonidine. After generating two successive, cumulative effect-concentration curves separated by a rest period of 20 minutes, the antagonist is placed in contact with the isolated organ for 10 minutes and a new effect-concentration relationship is determined. In preliminary experiments, it was established that the second and third effect-concentration relation with the agonist are identical in the absence of antagonist.
To characterize the α1 blocking effect, the organ is stimulated by phenylephrine. Stimulation of the rat deferent canal produces a rapid contractile response (maximum contraction is obtained in 30 seconds). After a rest period of 30 minutes, increasing concentrations of phenylephrine are added in the organ cell over 30 seconds. A first effect-concentration relationship is established. After a washing and a new rest period of 15 mins. wherein the organ returns to the initial tension, a second effect-concentration relationship is effected. The antagonist is placed in contact with the tissue returned to its base tension after washing and a third effect-concentration relationship is determined. In preliminary experiments, it was established that the second and third effect-concentration relationship of the agonist are identical in the absence of antagonist. […] The apparent dissociation constant (KD), calculated according to Furchgott, is the relation between the molar concentration of antagonist and the relation of equiactive doses of agonist (in the presence and absence of antagonist) -1.
The effect (inhibition of the contractile response) is expressed as a percentage of the maximum effect.

Test [4] relates to α2 adrenergic receptors of rat aorta. Nature of the test: antagonism of BHT 920 induced contraction of isolated rat aorta. Further details: species or system rat (female Wistar). Here is the method: The antagonism of ISK7 relative to the contracture-causing effect of BHT 920 (2-amino-6-allyl-5,6,7,8-tetrahydro[4,5-d]thiazolo-4H-azepinedihydrochloride) (α2 adrenergic agonist) on rat aorta is taken as an example. There is antagonism when a substance is capable of partially or totally opposing the effects of an agonistic substance.
Rapidly removed female Wistar rat aorta is received in a Krebs solution containing: NaCl 120 mM; KCl 4.8 mM; NaHCO3 25 mM; glucose 10 mM; CaCl2 1.25 mM; MgSO4 1.19 mM; KH2 PO4 1.14 mM. The aorta, freed of connective and adipose tissue, is cut in hoops of a length of about 1 mm. Each hoop is installed in a 10 ml organ cell containing Krebs liquid at 37°, oxygenated with an oxygen-carbon dioxide mixture (95% O2 and 5% CO2) and connected to an isometric sensor of tradename Statham and made by Gould Inc., Medical Product Division, under a base tension of 2 g. Recording of the contractions is effected with a polygraph of tradename Beckman and made by Beckman. After a rest period (1 h) interrupted by washings, a first effect-concentration relation is established by studying the contraction provoked by addition in the cell of increasing concentrations of BHT 920. After a new rest period interrupted by washings (30 min.) where the organ returns to the initial tension, the antagonist is placed in contact with the vessel for 10 minutes; the a new effect-concentration relation with BHT 920 is established. In preliminary experiments, it was established that the first and second effect-concentration relation of the agonist are identical in the absence of antagonist. […] The displacement increases with ISK concentration. […] The apparent dissociation constant of ISK7, calculated from experiments illustrated in FIG. 1 for a competitive antagonism according to Furchgott R. F. (in Catecholamines, ed. by Blaschko and Muscholl, Springer-Verlag, Berlin, 1972, pp. 283-335) is 1.2×10^-7 M for the two concentrations employed. […]

Test [5] deals with H1 histaminic receptor. Nature of the test: binding sites of [3H] pyrilamine.
The target in test [6] is T3, α1 adrenergic receptors of isolated rat deferent canal (Rattus norvegicus, UniProt P43140).
T3 construct: The deferent canals of 12-week old male Wistar rats are removed; from tissue; host or cells: isolated vas deferens (deferent canal) of male Wistar rats
T3 sequence (P43140 1-466): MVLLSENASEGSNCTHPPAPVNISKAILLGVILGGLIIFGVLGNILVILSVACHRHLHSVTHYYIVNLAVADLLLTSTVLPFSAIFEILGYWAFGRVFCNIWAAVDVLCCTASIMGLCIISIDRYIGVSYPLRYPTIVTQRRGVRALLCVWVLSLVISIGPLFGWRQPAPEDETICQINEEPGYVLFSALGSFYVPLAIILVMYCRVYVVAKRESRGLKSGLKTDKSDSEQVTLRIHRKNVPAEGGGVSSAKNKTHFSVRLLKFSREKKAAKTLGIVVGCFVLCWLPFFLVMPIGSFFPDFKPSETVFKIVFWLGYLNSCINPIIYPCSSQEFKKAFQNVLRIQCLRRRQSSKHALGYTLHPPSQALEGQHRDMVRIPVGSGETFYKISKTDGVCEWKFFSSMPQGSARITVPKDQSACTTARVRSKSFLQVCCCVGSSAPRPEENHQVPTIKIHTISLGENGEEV
Description: antagonism with phenylephrine induced contraction of rat deferent canal. Further details: species or system rat (male Wistar). The following applies: for effect on effect-concentration curves of phenylephrine: FIG. 3; for slope of Schild relation, antagonism with phenylephrine: rat deferent canal. The procedure: The deferent canals of 12-week old male Wistar rats are removed.
Each organ is connected to an isometric sensor of tradename Statham, made by Gould Inc., Medical Product Division, under a base tension of 0.5 g. Contractions are recorded by a polygraph of tradename Beckman, made by Beckman. To characterize the α2 blocking effect, the deferent canal is electrically stimulated by rectangular impulses of 2 msec duration, 30 volts, with a frequency of 0.2 Hz delivered by a stimulator of tradename Bioscience (Stimulator 100), made by Palmer. After a rest period of 20-30 minutes, increasing concentrations of clonidine are added to the survival medium over 2 minutes. This permits establishing the relation between the effect and concentration of clonidine. After generating two successive, cumulative effect-concentration curves separated by a rest period of 20 minutes, the antagonist is placed in contact with the isolated organ for 10 minutes and a new effect-concentration relationship is determined.
To characterize the α1 blocking effect, the organ is stimulated by phenylephrine. […] After a rest period of 30 minutes, increasing concentrations of phenylephrine are added in the organ cell over 30 seconds. A first effect-concentration relationship is established. After a washing and a new rest period of 15 mins. wherein the organ returns to the initial tension, a second effect-concentration relationship is effected. The antagonist is placed in contact with the tissue returned to its base tension after washing and a third effect-concentration relationship is determined. […] The apparent dissociation constant (KD), calculated according to Furchgott, is the relation between the molar concentration of antagonist and the relation of equiactive doses of agonist (in the presence and absence of antagonist) -1.

The subject of test [7] is D2 dopaminergic receptor. Nature of the test: binding sites of [3H] dexetimide.
Test [8] concerns binding sites of [^3 H] nitrendipine (calcium influx blocking agent). Description: binding sites of [3H] nitrendipine.
In test [9] the test system is serotonergic receptor. Nature of the test: binding sites of [3H] ketanserine.
The test system of test [10] is α1 receptors. The following applies: statement in words, background; cited from earlier work.

With `COc1cc(N)c(CN2CCc3cc(OC)c(OC)cc3C2)cc1OC` [ISK4, 2-(2-amino-4,5-dimethoxybenzyl)-6,7-dimethoxy-1,2,3,4-tetrahydroisoquinoline], the inhibition constant Ki came out at 2900 ± 400 nM in test [1] and 810 ± 110 nM in test [2].

Take `COc1ccc2c(c1)CCN(Cc1cc(OC)c(OC)cc1N)C2` [ISK7, 2-(2-amino-4,5-dimethoxybenzyl)-6-methoxy-1,2,3,4-tetrahydroisoquinoline]: the Ki in test [1] was 990 ± 50 nM; in test [2], 63 ± 20 nM. In [3], this compound gave a Kb of 200 nM. Besides, the “effect on effect-concentration curves of clonidine” value in [3] (FIG. 2, ISK7 100-3000 nM, prazosine 1000-10,000 nM, yohimbine 30-1000 nM) was “shift toward the right of the effect-concentration curves of agonist without diminution of the maximum effect”. The “antagonist selectivity on isolated rat deferent canal” value in test [3] (clonidine (α2) versus phenylephrine (α1)) is reported as “selective, α2 type adrenergic antagonist”. Further, in test [3] (rat deferent canal, electric stimulation), the “slope of Schild relation, antagonism with clonidine” value amounted to 1.05. Moreover, the Kd in test [4] (according to Furchgott, competitive antagonism, two concentrations (10^-7 and 10^-6), read-out: apparent dissociation constant (antagonism of BHT 920, rat aorta)) was 120 nM; in test [6] (read-out: log of KD, antagonism with phenylephrine (pA2 cannot be calculated) (converted)), 2880 nM. Besides, the pA2 on aorta in test [4] (antagonism with BHT 920) was 6.9. In [4] (rat aorta, 10 minutes contact), the “effect on effect-concentration curve of BHT 920” value is “shift to the right of the effect-concentration curve of the agonist, without depression of the maximum”. The “affinity for the binding sites of [^3 H] pyrilamine” value in test [5] is given as “no affinity”. Moreover, the “effect on effect-concentration curves of phenylephrine” value in test [6] is reported as “shifted toward the right without depression of the maximum”. In test [6], the “slope of Schild relation, antagonism with phenylephrine” value (shortened to “slope … with phenylephrine”) is “very different than 1”. Further, the “inhibition of the effect of phenylephrine relative to clonidine” value in test [6] (α1 versus α2, rat deferent canal) is recorded as “only at concentrations very significantly higher than the concentrations at which it competitively inhibits the effect of α2 selective agonist, clonidine”. The “affinity for the binding sites of [^3 H] dexetimide” value in test [7] is reported as “no affinity”. Moreover, in test [8], the “affinity for the binding sites of [^3 H] nitrendipine” value was “no affinity”. The “affinity for the binding sites of [^3 H] ketanserine” value in [9] is “no affinity”.

`COc1cc2c(cc1OC)CN(Cc1ccccc1N)CC2` [ISK17, 2-(2-aminobenzyl)-6,7-dimethoxy-1,2,3,4-tetrahydroisoquinoline]: the figures for the Ki in [1] and in test [2] were 3400 ± 300 nM and 1700 ± 300 nM, respectively.

As for `COc1cc(N)c(CN2CCc3ccccc3C2)cc1OC` [ISK18, 2-(2-amino-4,5-dimethoxybenzyl)-1,2,3,4-tetrahydroisoquinoline], the Ki in test [1] was 3220 ± 70 nM; in test [2], 220 ± 75 nM.

On to `CNc1cc(OC)c(OC)cc1CN1CCc2cc(OC)c(OC)cc2C1` [ISK23, 2-(2-methylamino-4,5-dimethoxybenzyl)-6,7-dimethoxy-1,2,3,4-tetrahydroisoquinoline], for which the Ki was > 10000 nM in test [1] and 2670 ± 400 nM in [2].

In the case of `O=[N+]([O-])c1cc(Cl)ccc1CN1CCc2ccccc2C1` [ISK24, 2-(2-nitro-4-chlorobenzyl)-1,2,3,4-tetrahydroisoquinoline], the Ki is > 30000 nM in [1] and 2740 ± 1020 nM in [2].

With `Nc1cc(Cl)ccc1CN1CCc2ccccc2C1` [ISK25, 2-(2-amino-4-chlorobenzyl)-1,2,3,4-tetrahydroisoquinoline], the values for the Ki in test [1] and in test [2] were > 30000 nM and 1400 ± 375 nM, respectively.

Regarding `COc1ccc2c(c1)CCN(Cc1ccc(Cl)cc1N)C2` [ISK31, 2-(2-amino-4-chlorobenzyl)-6-methoxy-1,2,3,4-tetrahydroisoquinoline], the Ki in [1] was found to be 1800 ± 330 nM; in test [2], 155 ± 35 nM.

For the compound `COc1cc2nc(N3CCN(C(=O)c4ccco4)CC3)nc(N)c2cc1OC` [Prazosine [^3 H], reference compound], the Kd in test [1] (read-out: KD of Prazosine [^3 H], radioligand) turned out to be 0.14 nM.

For `COc1cc2nc(N3CCN(C(=O)c4ccco4)CC3)nc(N)c2cc1OC` [Prazosine, reference compound], in [6], the “effect on effect-concentration curves of phenylephrine” value was “shifted toward the right without depression of the maximum” and the “slope … with phenylephrine” value was 0.99.

On to `COC(=O)[C@@H]1[C@H]2C[C@H]3c4[nH]c5ccccc5c4CCN3C[C@@H]2CC[C@@H]1O` [Yohimbine, reference compound], for which the Ki in [1] turned out to be 350 ± 30 nM. In test [3], the “effect on effect-concentration curves of clonidine” value is “shift toward the right of the effect-concentration curves of agonist without diminution of the maximum effect” and the “slope of Schild relation, antagonism with clonidine” value amounted to 1.15. The “affinity for α1 receptors” value in [10] is “only slight affinity”. Besides, in test [6], the “effect on effect-concentration curves of phenylephrine” value was “shifted toward the right without depression of the maximum” and the “slope … with phenylephrine” value is recorded as 0.85.
